Test results taken from patent US20030153073A1, “Expansion of T cells in vitro and expanded T cell populations” (priority 2001, published 2003).

Key:
U937 = test: 51Cr cytotoxicity assay, Vα24+ T cell effectors, U937 targets; assay type: cell-based, human; conditions: targets pulsed 16 hours with 50 ng/ml glycolipid (FIG. 4)
Source text: (§1) The cell lines U937 (histiocytic lymphoma), RAJI (Burkitt's B cell lymphoma), and K562 (erythroleukemia) were originally obtained from the American Type Culture Collection, ATCC (Mannassas, Va.) and were a gift from Dr. D. Green (La Jolla Institutive for Allergy and Immunology (LIAI), San Diego, Calif.). The T cell leukemia Jurkat cell line was obtained from Nobuaki Takahashi (Kirin Brewery Co., Ltd., Gunma, Japan). Cells were maintained in RPMI-1640 with 10% fetal calf serum (GibcoBRL), penicillin, streptomycin, 2-mercaptoethanol, and Hepes as described previously. For cytotoxic assays, cells were cultured at 1×10^5/ml with 50 ng/ml KRN7000, β-GalCer, or 0.5% DMSO (vehicle) for 16 hours prior to assay.
(§2) ^51Cr cytotoxicity assays were performed as follows. A total of 5×10^3 51Cr-labeled cells (Na2^51CrO3) (ICN Biomedicals, Inc.) from the U937, K562, or Jurkat cell line as the target cells and various numbers of effector Vα24^+ T cells in 0.2 ml of culture medium were seeded into round-bottom microtiter wells. The culture was incubated at 37° C. in an atmosphere containing 6% CO2 for 5 h, and 0.1 ml of supernatant was collected from each well. The percentage of specific ^51Cr release was calculated as follows: [(cpm experimental−cpm spontaneous release)/(cpm maximal release−cpm spontaneous release)]×100.

Jurkat tumor cells = test: 51Cr cytotoxicity assay, Vα24+ T cell effectors, Jurkat targets; assay type: cell-based, human; conditions: targets pulsed 16 hours with 50 ng/ml glycolipid (FIG. 4)
Source text: as §1
as §2, with “release)]×100. […]” for “release)]×100.”

PBMC = test: Proliferation of PBMCs, [3H]-thymidine incorporation; assay type: cell-based, human; conditions: donor 9 PBMC, 5 days, tritiated thymidine incorporation
K562 = test: 51Cr cytotoxicity assay, Vα24+ T cell effectors, K562 targets; assay type: cell-based, human; conditions: targets pre-pulsed (FIG. 4)
Source text: as §1, §2

RAJI = test: 51Cr cytotoxicity assay, Vα24+ T cell effectors, RAJI targets; assay type: cell-based, human; conditions: data not shown
Source text: as §1, §2

[1] = tested on: CD3^+hCD1d/KRN7000 Tetramer^+ T cells; test: Expansion of CD3+ hCD1d/KRN7000 Tetramer+ T cells in PBMC culture, 7 days; assay type: cell-based, human
Molt-4 = test: 51Cr cytotoxicity assay, Vα24+ T cell effectors, Molt-4 targets; assay type: cell-based, human; conditions: data not shown

Molecule	lysis of glycolipid-pulsed U937 target cells by CD4^+ and CD4^− expanded Vα24^+ T cells (U937)	lysis of glycolipid-pulsed Jurkat target cells by CD4^+ and CD4^− expanded Vα24^+ T cells (Jurkat tumor cells)	Proliferation, cpm (PBMC)	Proliferation, cpm (PBMC; listed as KRN7000 only)	lysis of glycolipid-pulsed K562 target cells by expanded Vα24^+ T cells (K562)	killing of RAJI target cells by expanded Vα24^+ T cells (RAJI)	% CD^3+ Tetramer^+ cells ([1]; PBMC 1×10^6/ml, 7 days, KRN7000 100 ng/ml, rhIL-2 10 ng/ml, rhIL-15 100 ng/ml, flow cytometry) [%]	number of Tetramer^+ cells ([1]; percentage × cells recovered, day 7)	increase in Vα24/Vβ11 cells with autologous donor serum versus commercial pooled human serum (Vα24^+Vβ11^+ T cells; 3 donors, KRN7000 and rhIL-2, 7 days)	Percentage of Vα24/Vβ11 cells (Vα24^+Vβ11^+ T cells; donor 9 PBMC, 7 days, flow cytometry) [%]	Number of Vα24Vβ11 cells (Vα24^+Vβ11^+ T cells; donor 9 PBMC, day 7, cell recovery × percentage)	killing of Molt-4 target cells by expanded Vα24^+ T cells (Molt-4)
CCCCCCCCCCCCCCCCCCCCCCCCCC(=O)N[C@@H](CO[C@H]1O[C@H](CO)[C@H](O)[C@H](O)[C@H]1O)[C@H](O)[C@H](O)CCCCCCCCCCCCCC [KRN7000, (2S,3S,4R)-1-O-(alpha-D-Galactopyranosyl)-N-hexacosanoyl-2-amino-1,3,4-octadecanetriol]	lysed	lysed	little or no proliferation	1,145 cpm	not lysed	not killed	0.03	312	up to 7 times	0.25	2,125	not killed
β-galactosylceramide [β-GalCer]	not lysed	not lysed	–	–	–	–	–	–	–	–	–	–
